Measured values from PMC6792352, “Limited Chemical Structural Diversity Found to Modulate Thyroid Hormone Receptor in the Tox21 Chemical Library” (Environmental Health Perspectives, 2019).
Counter-ions that a name gives are not always drawn.

Experiment: in vitro
Conditions: rat, gh3-tre-luc cells

Structure (SMILES) | CC50 at 24 h (AC50 (uM) modified / 1000) [µM] | also measured
CC1OCCC1=O (stereo not shown) [2-Methyldihydrofuran-3(2H)-one] | > 90 | –
Cc1cccc(C)c1NC(=O)CN1CCCCCC1 [Pincainide] | > 50 | –
Brc1cc2ccccc2c2ccccc12 [9-Bromophenanthrene] | > 90 | –
CC=C1CC2C=CC1C2 (stereo not shown) [5-Ethylidene-2-norbornene] | > 90 | –
CCCCCCCCCI [1-Iodononane] | > 90 | –
ClCc1cccnc1 [3-(Chloromethyl)pyridine hydrochloride] | > 90 | –
Nc1nc(=O)[nH]cc1F [Flucytosine] | > 20 | –
COP(=O)(OC)O/C(C)=C/C(=O)N(C)C [Dicrotophos] | – | CC50 at 24 h (AC50 (uM) modified / 1000, Tox21_110001=Tox21_301078, viability, 1 nM T3 present, 24 h): > 90 µM
CCCCCCCCCCCCOC(C)=O [Dodecyl acetate] | > 90 | –
Cc1ccnc2ccccc12 [Lepidine] | > 90 | –
CN1CCCC(CN2c3ccccc3Sc3ccccc32)C1 (stereo not shown) [Pecazine] | 16.4 | –
CCCCN(CCCC)SN(C)C(=O)Oc1cccc2c1OC(C)(C)C2 [Carbosulfan] | – | CC50 at 24 h (AC50 (uM) modified / 1000, Tox21_110001=Tox21_202336, viability, 1 nM T3 present, 24 h): > 90 µM; CC50 at 24 h (AC50 (uM) modified / 1000, Tox21_110001=Tox21_300473, viability, 1 nM T3 present, 24 h): 24.2 µM
CC/C=C\CC/C=C/C=O [trans-2,cis-6-Nonadienal] | > 90 | –
Brc1ccc(-c2ccccc2)cc1 [4-Bromobiphenyl] | > 90 | –
CC(C)Cc1ccc(CC(=O)O)cc1 [Ibufenac] | > 50 | –
CC(C)=CCC/C(C)=C/CC/C(C)=C/CCC(=O)OC/C=C(\C)CCC=C(C)C [Gefarnate] | > 50 | –
CN1CCC[C@@H]1Cc1c[nH]c2ccc(CCS(=O)(=O)c3ccccc3)cc12 [Eletriptan] | 21.1 | –
CCCCCCCCCCCl [1-Chlorodecane] | > 90 | –
CC/C=C\CCOC(=O)C(C)C [(3Z)-Hex-3-en-1-yl 2-methylpropanoate] | > 90 | –
CCCCCCCCCCCCN1CCCC1=O [1-Dodecyl-2-pyrrolidinone] | 49.6 | –
CN(C)c1ccc(C(=C2C=CC(=[N+](C)C)C=C2)c2c(O)c(S(=O)(=O)[O-])cc3cc(S(=O)(=O)O)ccc23)cc1 [Acid green 50] | 30.6 | –
CCOc1ccc2nc3cc(N)ccc3c(N)c2c1 [Ethacridine lactate hydrate] | > 50 | –
C=COC(C)=O [Vinyl acetate] | > 90 | –

Structure (SMILES) | CC50 at 24 h (AC50 (uM) modified / 1000) [µM] | also measured
O=C(CCN1CC1)OCC(CO)(COC(=O)CCN1CC1)COC(=O)CCN1CC1 [3-{[3-(Aziridin-1-yl)propanoyl]oxy}-2-({[3-(aziridin-1-yl)propanoyl]oxy}methyl)-2-(hydroxymethyl)propyl 3-(aziridin-1-yl)propanoate] | > 90 | –
NC(=O)Cc1cccc(C(=O)c2ccccc2)c1N [Nepafenac] | > 50 | –
COCCc1ccc(OCC(O)CNC(C)C)cc1 (stereo not shown) [Metoprolol tartrate] | > 50 | –
CCN1C[C@]2(COC)[C@H](O)C[C@H](OC)[C@]34C1[C@H]([C@H](OC)[C@H]23)[C@]1(OC(C)=O)[C@H]2[C@@H](OC(=O)c3ccccc3)[C@](O)(C[C@H]24)[C@@H](OC)[C@@H]1O [Aconitine] | > 50 | –
Nc1cccc(N)c1 [1,3-Benzenediamine dihydrochloride] | > 90 | –
CCC/C=C(/C=O)CC [2-Ethyl-2-hexenal] | > 90 | –
Cc1ccc(=O)n(-c2ccccc2)c1 [Pirfenidone] | > 50 | –
O=C1OC(=O)c2cc([N+](=O)[O-])ccc21 [4-Nitrophthalic anhydride] | > 90 | –
NC(=O)CCCCC(N)=O [Adipamide] | > 90 | –
CCC(=O)C(=O)CC [3,4-Hexanedione] | > 100 | –
C=CC(=O)OCC[N+](C)(C)C [2-(Dimethylamino)ethyl acrylate methochloride] | > 90 | –
CCOC(C)(C)C [Ethyl T-butyl ether] | > 90 | –
CCOC(=O)[N-]c1cn(N2CCOCC2)n[o+]1 [Molsidomine] | > 20 | –
COc1ccc(CCNC[C@H](O)c2ccc(O)cc2)cc1OC [Denopamine] | > 50 | –
COc1ccc2c(=O)c(C)c(-c3ccccc3)oc2c1CN(C)C [Dimefline hydrochloride] | > 50 | –
Cc1cc(Cl)c(C)cc1Cl [1,4-Dichloro-2,5-dimethylbenzene] | > 90 | –
O=C(O)CCCC/C=C(\c1ccccc1)c1cccnc1 [Isbogrel] | > 50 | –
COP(=O)(OC)OC=C(Cl)Cl [Dichlorvos] | – | CC50 at 24 h (AC50 (uM) modified / 1000, Tox21_110001=Tox21_111052, viability, 1 nM T3 present, 24 h): > 50 µM; CC50 at 24 h (AC50 (uM) modified / 1000, Tox21_110001=Tox21_201617, viability, 1 nM T3 present, 24 h): > 90 µM
COC(=O)/C=C(\C)CCC=C(C)C [Methyl geranate] | > 90 | –
Clc1ccccc1 [Chlorobenzene] | > 90 | –
Brc1ccccc1-c1ccccc1 [2-Bromobiphenyl] | > 90 | –
COc1ccc(C(C)=O)cc1 [4'-Methoxyacetophenone] | > 90 | –
Cc1ccc(C)c(OCCCC(C)(C)C(=O)O)c1 [Gemfibrozil] | > 90 | –

Structure (SMILES) | CC50 at 24 h (AC50 (uM) modified / 1000) [µM] | also measured
CCCC[N+](CCCC)(CCCC)CCCC [Tetrabutylammonium bromide] | > 90 | –
Cc1cn([C@H]2C[C@H](N=[N+]=[N-])[C@@H](CO)O2)c(=O)[nH]c1=O [3'-Azido-3'-deoxythymidine] | > 90 | –
O=C(CBr)c1ccc(O)cc1 [2-Bromo-4-hydroxyacetophenone] | > 90 | –
CCCCCc1ccc(C)cc1O [Amylmetacresol] | > 50 | –
CCCCN(CCO)CCCC [2-(Dibutylamino)ethanol] | > 90 | –
Cc1ccccn1 [2-Methylpyridine] | > 90 | –
COc1cc(-c2nc(NC(=O)c3cc4cc(C)cc(C)c4n3CC(=O)O)sc2CCC2CCCCC2)c(OC)cc1Cl [SR146131 trifluoroacetate (1:1)] | 12.1 | –
COc1ccc2c(c1)[C@]13CCCC[C@@H]1[C@H](C2)N(C)CC3 [Dextromethorphan hydrobromide monohydrate] | – | CC50 at 24 h (AC50 (uM) modified / 1000, Tox21_110001=Tox21_110766, viability, 1 nM T3 present, 24 h): > 50 µM
NCCS(=O)(=O)O [l-Taurine] | 29.5 | –
CN1CCOC(c2ccccc2)c2ccccc2C1 (stereo not shown) [Nefopam hydrochloride] | > 20 | –
CC(=O)c1ccc2c(c1)N(CCCN1CCN(CCO)CC1)c1ccccc1S2 [Acetophenazine dimaleate] | 16.5 | –
NCCc1ccc(O)cc1 [Tyramine hydrochloride] | > 90 | –
CCCCOC(=O)c1ccccc1C(=O)OCC(CC)CCCC (stereo not shown) [Butyl 2-ethylhexyl phthalate] | > 90 | –
C[C@]12CC[C@H]3[C@@H](CCC4=CC(=O)CC[C@@H]43)[C@@H]1CC[C@@H]2OC(=O)CCc1ccccc1 [Nandrolone phenpropionate] | > 50 | –
OCCCNc1ccccc1 [3-Anilinopropan-1-ol] | > 50 | –
O=[N+]([O-])c1cccc(O)c1 [3-Nitrophenol] | – | CC50 at 24 h (AC50 (uM) modified / 1000, Tox21_110001=Tox21_200022, viability, 1 nM T3 present, 24 h): > 90 µM
CCn1cc(C(=O)O)c(=O)c2cc(F)c(N3CCNC(C)C3)c(F)c21 (stereo not shown) [Lomefloxacin hydrochloride] | > 50 | –
O=C(O)CNC(=O)c1ccc([N+](=O)[O-])cc1 [4-Nitrohippuric acid] | > 90 | –
C=CC(C)(CCC=C(C)C)OC(=O)CC(C)C (stereo not shown) [Linalyl isovalerate] | > 90 | –
CC(=O)/C=C/[C@H]1C(C)=CC[C@@H](C)C1(C)C [alpha-Irone] | > 90 | –
O=S(=O)(O)c1cc(O)c2ccc(Nc3ccccc3)cc2c1 [4-Hydroxy-7-(phenylamino)naphthalene-2-sulfonic acid] | > 90 | –
Cc1ccc(S(=O)(=O)O)c(C)c1 [Sodium m-xylene-4-sulfonate] | > 90 | –
